# According to patent US8871767B2, “2-arylimidazo[1,2-B]pyridazine, 2-phenylimidazo[1,2-A]pyridine, and 2-phenylimidazo[1,2-A]pyrazine derivatives” (Hengrui (USA) Ltd., priority 2010, dated 2014):
# Like-named read-outs stand apart in the source and are kept apart here.
# Legend:
# [1] = tested on: Hedgehog pathway activation (GLi-luciferase reporter) in Shh Light II reporter cells; experiment: Hedgehog pathway activation on Shh Light II reporter cells measured by luciferase activity; type: cell-based
# Outline: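 Shh Light II reporter cells carrying a hedgehog-responsive GLi-luciferase reporter were stimulated either with 500 nM SAG, a direct Smoothened agonist, or with conditioned media containing human Sonic Hedgehog (hShh). Test compounds were evaluated for blocking this pathway activation, quantified by luciferase activity. Cell viability was monitored in parallel with the Celltiter-Blue® assay.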
# [2] = tested on: Hedgehog pathway activation on 10T1/2/Smo#3 cells (C3H10T1/2 cells transfected with human Smoothened receptor); experiment: Hedgehog pathway activation on 10T1/2/Smo#3 cells measured by ALP activity; type: cell-based
# Outline: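 Inhibition of alkaline phosphatase induction, read fluorometrically from 4-methylumbelliferyl phosphate conversion, gave IC50 values; CellTiter-Blue tracked viability in parallel. Cells were the human Smo-transfected 10T1/2/Smo#3 pool, stimulated by 10-20% hShh conditioned medium or the Smo agonist SAG (500 nM).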
# [3] = Mus musculus, Shh Light II, hShh activation, read-out: Shh (IC50, inhibition of Hedgehog pathway activation)
# [4] = Mus musculus, C3H 10T1/2, 10T1/2/Smo#3 cells, measured by ALP activity, read-out: ALP (IC50, inhibition of Hedgehog pathway activation)
# [5] = Mus musculus, Shh Light II, SAG activation (500 nM SAG), read-out: Shh Light II luciferase activity (SAG activation)
# [6] = Mus musculus, Shh Light II, hShh activation, read-out: Shh Light II luciferase activity (hShh activation)
# [7] = Mus musculus, C3H 10T1/2, 10T1/2/Smo#3 cells, hShh activation, ALP activity, read-out: 10T1/2/Smo#3 ALP activity (hShh Activation)
Structure (SMILES),"IC50 [1, 3]","IC50 [2, 4]","IC50 [1, 5]","IC50 [1, 6]","IC50 [2, 7]","IC50 ([1]; hShh activation, read-out: Shh (IC50, inhibition of Hedgehog pathway activation))","IC50 ([2]; 10T1/2/Smo#3 cells, measured by ALP activity, read-out: ALP (IC50, inhibition of Hedgehog pathway activation))"
"Cc1ccc(-c2nc3ccc(Cl)nn3c2C)cc1NC(=O)C(C)(C)C [Example 311, N-(5-(6-chloro-3-methylimidazo[1,2-b]pyridazin-2-yl)-2-methylphenyl)pivalamide]",2080 nM,2420 nM,,,,,
"CCOc1ccc2nc(-c3ccc(C(F)(F)F)c(NC(=O)C(C)(C)C)c3)cn2n1 [Example 136, N-(5-(6-ethoxyimidazo[1,2-b]pyridazin-2-yl)-2-(trifluoromethyl)phenyl)pivalamide]",158 nM,452 nM,,,,,
"NS(=O)(=O)c1cc(-c2cn3nc(-c4cccnc4C(F)(F)F)ccc3n2)ccc1Cl [Example 697, 2-chloro-5-(6-(2-(trifluoromethyl)pyridin-3-yl)imidazo[1,2-b]pyridazin-2-yl)benzenesulfonamide]",> 10000 nM,> 10000 nM,,,,,
"COc1ccc2nc(-c3ccc(C)c(NC(=O)c4ccccc4C(F)(F)F)c3)cn2n1 [Example 99, N-(5-(6-methoxyimidazo[1,2-b]pyridazin-2-yl)-2-methylphenyl)-2-(trifluoromethyl)benzamide]",> 10000 nM,3690 nM,,,,,
Cc1ccc(-c2cn3nc(-c4ccc(S(N)(=O)=O)cc4C(F)(F)F)ccc3n2)cc1NC(=O)C(C)(C)C [compound 535],56 nM,139 nM,,,,,
"CC(C)(C)C(=O)Nc1cc(-c2cn3nc(-c4cccnc4Cl)ccc3n2)ccc1C(F)(F)F [Example 334, N-(5-(6-(2-chloropyridin-3-yl)imidazo[1,2-b]pyridazin-2-yl)-2-(trifluoromethyl)phenyl)pivalamide]",278 nM,213 nM,,,,,
"O=C(Nc1cc(-c2cn3nc(-c4cccnc4C(F)(F)F)ccc3n2)ccc1Cl)C1CCCCC1 [Example 670, N-(2-chloro-5-(6-(2-(trifluoromethyl)pyridin-3-yl)imidazo[1,2-b]pyridazin-2-yl)phenyl)cyclohexanecarboxamide]",61 nM,620 nM,,,,,
"O=C(Nc1cc(-c2cn3nc(-c4cccnc4C(F)(F)F)ccc3n2)ccc1F)C1CC1 [Example 681, N-(2-fluoro-5-(6-(2-(trifluoromethyl)pyridin-3-yl)imidazo[1,2-b]pyridazin-2-yl)phenyl)cyclopropanecarboxamide]",976 nM,6560 nM,,,,,
Cc1ccc(-c2cn3nc(-c4cc(C#N)ccc4C(F)(F)F)ccc3n2)cc1NC(=O)C(C)(C)C [compound 596],18 nM,94 nM,,,,,
"CC(C)(C)C(=O)Nc1cc(-c2cn3nc(-c4cncnc4)ccc3n2)ccc1C(F)(F)F [Example 372, N-(5-(6-(pyrimidin-5-yl)imidazo[1,2-b]pyridazin-2-yl)-2-(trifluoromethyl)phenyl)pivalamide]",827 nM,633 nM,,,,,
Cc1ccc(-c2cn3nc(-c4ccc(C=CC(=O)NO)cc4)ccc3n2)cc1NC(=O)C(C)(C)C [compound 560],402 nM,481 nM,3000 to 30000 nM,< 300 nM,300 to 3000 nM,,
"Cc1ccc(-c2cn3nc(N4CC[C@H](O)C4)ccc3n2)cc1NC(=O)C(C)(C)C [Example 346, (S)-N-(5-(6-(3-hydroxypyrrolidin-1-yl)imidazo[1,2-b]pyridazin-2-yl)-2-methylphenyl)pivalamide]",44 nM,23 nM,< 300 nM,< 300 nM,< 300 nM,,
"Cc1ccc(-c2cn3nc(-c4cccnc4F)ccc3n2)cc1NC(=O)C(C)(C)C [Example 265, N-(5-(6-(2-fluoropyridin-3-yl)imidazo[1,2-b]pyridazin-2-yl)-2-methylphenyl)pivalamide]",83 nM,82 nM,,,,,
"O=C(Nc1cc(-c2cn3nc(-c4cccnc4C(F)(F)F)ccc3n2)ccc1Cl)N1CC(F)(F)C1 [Example 669, N-(2-chloro-5-(6-(2-(trifluoromethyl)pyridin-3-yl)imidazo[1,2-b]pyridazin-2-yl)phenyl)-3,3-difluoroazetidine-1-carboxamide]",28 nM,125 nM,< 300 nM,< 300 nM,< 300 nM,,
"CC(C)(C)C(=O)Nc1cc(-c2cn3nc(N4CCC(O)C4)ccc3n2)ccc1C(F)(F)F (stereo not shown) [Example 467, N-(5-(6-(3-hydroxypyrrolidin-1-yl)imidazo[1,2-b]pyridazin-2-yl)-2-(trifluoromethyl)phenyl)pivalamide]",,,,,,115 nM,114 nM
"Cc1cc(Cl)c(-c2cn3nc(Cl)ccc3n2)cc1NC(=O)C(C)(C)C [Example 131, N-(4-chloro-5-(6-chloroimidazo[1,2-b]pyridazin-2-yl)-2-methylphenyl)pivalamide]",1450 nM,8280 nM,,,,,
"CCc1ccc(-c2cn3nc(-c4cccnc4C(F)(F)F)ccc3n2)cc1NC(=O)CC(F)(F)F [Example 692, N-(2-ethyl-5-(6-(2-(trifluoromethyl)pyridin-3-yl)imidazo[1,2-b]pyridazin-2-yl)phenyl)-3,3,3-trifluoropropanamide]",416 nM,951 nM,,,,,
"COc1cccc(-c2ccc3nc(-c4ccc(C(F)(F)F)c(NC(=O)C(C)(C)C)c4)cn3n2)c1F [Example 206, N-(5-(6-(2-fluoro-3-methoxyphenyl)imidazo[1,2-b]pyridazin-2-yl)-2-(trifluoromethyl)phenyl)pivalamide]",341 nM,246 nM,,,,,
COC(=O)CCCCCCC(=O)Nc1ccc(-c2ccc3nc(-c4ccc(C)c(NC(=O)C(C)(C)C)c4)cn3n2)cc1 [compound 556],395 nM,737 nM,,,,,
"Fc1ccc(CN2CCN(c3ccc4nc(-c5ccc(F)cc5)c(Br)n4n3)CC2)cc1 [Example 146, 3-bromo-6-(4-(4-fluorobenzyl)piperazin-1-yl)-2-(4-fluorophenyl)imidazo[1,2-b]pyridazine]",> 10000 nM,6980 nM,,,,,
"CC1(C(=O)Nc2cc(-c3cn4nc(-c5cccnc5C(F)(F)F)ccc4n3)ccc2F)CC1 [Example 674, N-(2-fluoro-5-(6-(2-(trifluoromethyl)pyridin-3-yl)imidazo[1,2-b]pyridazin-2-yl)phenyl)-1-methylcyclopropanecarboxamide]",59 nM,140 nM,,,,,
"Cc1ccc(-c2nc3ccc(-c4ccccc4F)nn3c2C)cc1NC(=O)C(C)(C)C [Example 312, N-(5-(6-(2-fluorophenyl)-3-methylimidazo[1,2-b]pyridazin-2-yl)-2-methylphenyl)pivalamide]",213 nM,326 nM,,,,,
"C#Cc1ccc(-c2cn3nc(-c4ccccc4F)ccc3n2)cc1NC(=O)C(C)(C)C [Example 321, N-(2-ethynyl-5-(6-(2-fluorophenyl)imidazo[1,2-b]pyridazin-2-yl)phenyl)pivalamide]",323 nM,,300 to 3000 nM,< 300 nM,300 to 3000 nM,,
"CC(C)(C)CC(=O)Nc1cc(-c2cn3nc(-c4cccnc4C(F)(F)F)ccc3n2)ccc1Cl [Example 672, N-(2-chloro-5-(6-(2-(trifluoromethyl)pyridin-3-yl)imidazo[1,2-b]pyridazin-2-yl)phenyl)-3,3-dimethylbutanamide]",86 nM,565 nM,,,,,
Cc1ccc(-c2cn3nc(-c4ccc(C(N)=O)cc4C(F)(F)F)ccc3n2)cc1NC(=O)C(C)(C)C [compound 508],92 nM,110 nM,300 to 3000 nM,< 300 nM,< 300 nM,,
